Where two headings read alike, the source gives them in different places. One block for each compound: values may come before it.
What was measured:
TTR [1] = experiment: TTR editing in mouse liver by NGS after i.v. LNP delivery of Cas9 mRNA and sgRNA; assay type: in vivo; settings: CD-1 female mice; for % Editing (TTR, liver): Example 55: 0.1 mpk i.v.
Protocol: Preparations of various LNP compositions were prepared with amine lipids. In assays for percent liver editing in mice, Cas9 mRNA and chemically modified sgRNA were formulated in LNPs, at either a 1:1 w/w ratio or a 1:2 w/w ratio. LNPs are formulated with a composition of a given ionizable lipid (e.g. an amine lipid), DSPC, cholesterol, and PEG-2k-DMG, with a 6.0 N:P ratio.
(§1) CD-1 female mice, ranging from 6-10 weeks of age were used in each study. Animals were weighed and grouped according to body weight for preparing dosing solutions based on group average weight. LNPs were dosed via the lateral tail vein in a volume of 0.2 mL per animal (approximately 10 mL per kilogram body weight). The animals were periodically observed post dose for adverse effects for at least 24 hours post dose. Animals were euthanized at 6 or 7 days by exsanguination via cardiac puncture under isoflurane anesthesia. Blood was collected into serum separator tubes or into tubes containing buffered sodium citrate for plasma as described herein. For studies involving in vivo editing, liver tissue was collected from each animal for DNA extraction and analysis.
Cohorts of mice were measured for liver editing by Next-Generation Sequencing (NGS).
In brief, to quantitatively determine the efficiency of editing at the target location in the genome, genomic DNA was isolated and deep sequencing was utilized to identify the presence of insertions and deletions introduced by gene editing.
PCR primers were designed around the target site (e.g., B2M), and the genomic area of interest was amplified. Additional PCR was performed according to the manufacturer's protocols (Illumina) to add the necessary chemistry for sequencing. The amplicons were sequenced on an Illumina MiSeq instrument. The reads were aligned to the […] after eliminating those having low quality scores. The resulting files containing the reads were mapped to the reference genome (BAM files), where reads that overlapped the target region of interest were selected and the number of wild type reads versus the number of reads which contain an insertion, substitution, or deletion was calculated.
The editing percentage (e.g., the “editing efficiency” or “percent editing”) is defined as the total number of sequence reads with insertions or deletions over the total number of sequence reads, including wild type.
CD-1 female mice were dosed i.v. at 0.1 mpk or 0.3 mpk. At 6 days post-dose, animals were sacrificed. For animals dosed with G282 targeting TTR, blood and the liver were collected and serum TTR and editing were measured. For animals dosed with G650 targeting B2M, liver was collected and editing was measured.

TTR [2] = experiment: Transthyretin (TTR) ELISA analysis of mouse serum after LNP dosing; assay type: in vivo; settings: for response vs control in vivo at 0.1 mg/kg / inhibition in vivo at 0.03 mg/kg / response vs control in vivo at 0.03 mg/kg: Mus musculus, iv; for response vs control in vivo at 0.1 mg/kg / response vs control in vivo at 0.03 mg/kg: read-out: Serum TTR % TSS; for inhibition in vivo at 0.03 mg/kg: read-out: Serum TTR (% KD)
Protocol: as §1
CD-1 female mice were dosed i.v. at 0.1 mpk or 0.3 mpk. […] For animals dosed with G282 targeting TTR, blood and the liver were collected and serum TTR and editing were measured. For animals dosed with G650 targeting B2M, liver was collected and editing was measured.
Blood was collected and the serum was isolated as indicated. The total mouse TTR serum levels were determined using a Mouse Prealbumin (Transthyretin) ELISA Kit (Aviva Systems Biology, Cat. OKIA00111). Briefly, sera were serial diluted with kit sample diluent to a final dilution of 10,000-fold for 0.1 mpk dose and 2,500-fold for 0.3 mpk. This diluted sample was then added to the ELISA plates and the assay was then carried out according to directions.

[3] = pKa measurement of unformulated amine lipid (fluorescence, method of Jayaraman et al.); assay type: physicochemical; settings: 100 μM in 0.1 M phosphate buffer pH 4.5-9.0
Protocol: The pKa of each amine lipid was determined according to the method in Jayaraman, et al. (Angewandte Chemie, 2012) with the following adaptations. […] Lipid was diluted to 100 μM in 0.1 M phosphate buffer (Boston Bioproducts) where the pH ranged from 4.5-9.0. Fluorescence intensity was measured using excitation and emission wavelengths of 321 nm and 448 nm.

[4] = Example 55: 0.1 mpk i.v., 7 days post-dose, G282 1:1
[5] = Example 60: 0.1 mpk i.v., 6 days post-dose, G502 1:2
[6] = Example 64: Dose 0.03 mpk (table) i.v., 7 days post-dose, G282 1:1
[7] = 168 h, Example 64: Dose 0.03 mpk (table) i.v., 7 days post-dose, G282 1:1
[8] = Example 59: 0.1 mpk i.v., 7 days post-dose, G282 1:1
[9] = Example 61: 0.1 mpk i.v., 7 days post-dose, G282 1:1
[10] = Example 62: 0.03 mpk i.v., 7 days post-dose, G282 1:2
[11] = Example 62: 0.1 mpk i.v., 7 days post-dose, G282 1:2
[12] = Example 58: 0.1 mpk i.v., 6 days post-dose, G282 1:1
[13] = Example 63: 0.03 mpk i.v., 7 days post-dose, G282 1:1
[14] = Example 63: 0.1 mpk i.v., 7 days post-dose, G282 1:1

SMILES: CCCCCCCCCOC(=O)CCCCCCCN(CCO)CCCCCCCC(OC(C)CCCCCC)OC(C)CCCCCC (stereo not drawn) [Compound 25, nonyl 8-[8,8-bis(1-methylheptoxy)octyl-(2-hydroxyethyl)amino]octanoate]
Editing Mean % Indel (TTR [1]; [5]): 15.3% | Serum TTR (TTR [2]; [5]): 985 µg/mL | response vs control in vivo at 0.1 mg/kg (TTR [2]; 144 h, Example 60: 0.1 mpk i.v., 6 days post-dose, G502 1:2): 69% | pKa [3]: 6.1

SMILES: CCCCCCCCCOC(=O)CCCCCCCN(CCCCCCC(OCCCCCCCC)OCCCCCCCC)CCNC(C)=O [Compound 41, nonyl 8-((2-acetamidoethyl)(7,7-bis(octyloxy)heptyl)amino)octanoate]
Editing Mean % Indel (TTR [1]; [6]): 2.4% | Serum TTR (TTR [2]; [6]): 567.1 µg/mL | inhibition in vivo at 0.03 mg/kg (TTR [2]; [7]): 1% | pKa [3]: 6.82

SMILES: CCCCCCCCCOC(=O)CCCCCCCN(CCO)CCCCCCC(OCCCCCCCC)OCCCCCCCC [Compound 10, nonyl 8-((7,7-bis(octyloxy)heptyl)(2-hydroxyethyl)amino)octanoate]
% Editing (TTR, liver) (TTR [1]; 7 days post-dose, G282 1:1): 50% | Editing Mean % Indel (TTR [1]; [8]): 60.1% | Editing Mean % Indel (TTR [1]; [9]): 47.2% | Editing Mean % Indel (TTR [1]; [10]): 15.6% | Editing Mean % Indel (TTR [1]; [11]): 51.3% | Editing Mean % Indel (TTR [1]; [6]): 27.2% | Serum TTR (TTR [2]; [4]): 206 µg/mL | Serum TTR (% TSS) (TTR [2]; [4]): 18 % TSS | Serum TTR (TTR [2]; [8]): 80 µg/mL | Serum TTR (TTR [2]; [9]): 330 µg/mL | Serum TTR (TTR [2]; [10]): 424 µg/mL | Serum TTR (TTR [2]; [11]): 179 µg/mL | Serum TTR (TTR [2]; [6]): 409.2 µg/mL | response vs control in vivo at 0.1 mg/kg (TTR [2]; 168 h, Example 59: 0.1 mpk i.v., 7 days post-dose, G282 1:1): 9% | response vs control in vivo at 0.1 mg/kg (TTR [2]; 168 h, Example 61: 0.1 mpk i.v., 7 days post-dose, G282 1:1): 26% | response vs control in vivo at 0.03 mg/kg (TTR [2]; 168 h, Example 62: 0.03 mpk i.v., 7 days post-dose, G282 1:2): 67% | response vs control in vivo at 0.1 mg/kg (TTR [2]; 168 h, Example 62: 0.1 mpk i.v., 7 days post-dose, G282 1:2): 28% | inhibition in vivo at 0.03 mg/kg (TTR [2]; [7]): 28.5% | pKa [3]: 6.05

Further lines, with some results ahead:

pKa [3]: 6.37
SMILES: CCCCCCCCCOC(=O)CCCCCCCN(CCO)CCCCCCCC(OCCCCCC)OCCCCCC [Compound 8, nonyl 8-((8,8-bis(hexyloxy)octyl)(2-hydroxyethyl)amino)octanoate]
% Editing (TTR, liver) (TTR [1]; 7 days post-dose, G282 1:1): 43% | Serum TTR (TTR [2]; [4]): 387 µg/mL | Serum TTR (% TSS) (TTR [2]; [4]): 34 % TSS

pKa [3]: 6.46
SMILES: CCCCCCCCCCCCOC(=O)CCCCN(CCO)CCCCCCCC(OCCCCCCCC)OCCCCCCCC [Compound 14, dodecyl 5-((8,8-bis(octyloxy)octyl)(2-hydroxyethyl)amino)pentanoate]
Editing Mean % Indel (TTR [1]; [12]): 12.1% | Serum TTR (TTR [2]; [12]): 928 µg/mL | response vs control in vivo at 0.1 mg/kg (TTR [2]; 144 h, Example 58: 0.1 mpk i.v., 6 days post-dose, G282 1:1): 94%

pKa [3]: 6.41
SMILES: CCCCCCCCOC(CCCCCCCN(CCO)CCCCCCCC(=O)OC(C)CCCCCC)OCCCCCCCC (stereo not drawn) [Compound 27, octan-2-yl 8-((8,8-bis(octyloxy)octyl)(2-hydroxyethyl)amino)octanoate]
Editing Mean % Indel (TTR [1]; [13]): 27.86% | Editing Mean % Indel (TTR [1]; [14]): 57.10% | Serum TTR (TTR [2]; [13]): 497.99 µg/mL | Serum TTR (TTR [2]; [14]): 197.22 µg/mL | response vs control in vivo at 0.03 mg/kg (TTR [2]; 168 h, Example 63: 0.03 mpk i.v., 7 days post-dose, G282 1:1): 61.7% | response vs control in vivo at 0.1 mg/kg (TTR [2]; 168 h, Example 63: 0.1 mpk i.v., 7 days post-dose, G282 1:1): 24.4%
